Here are results for eight molecules from ChEMBL document CHEMBL3046948, “Synthesis and SAR investigation of natural phenylpropene-derived methoxylated cinnamaldehydes and their novel Schiff bases as potent antimicrobial and antioxidant agents” (2013).

Broadly, the MIC is the least concentration at which growth counts as inhibited.

In brackets after ≈: the same amount, converted by molar mass. Activity calls are given as the source filed them. The calls are words filed in the database; no cut-off is given here.

Holding throughout (assay type): functional
For assay [1], the system named is Aspergillus niger. Description: Antimicrobial activity against Aspergillus niger MTCC 404 assessed as growth inhibition after 5 days by broth microdilution method. (In general: Dilution methods test growth across graded concentrations, often in twofold steps.)
Assay [2] concerns Micrococcus luteus. Put plainly: Antimicrobial activity against Micrococcus luteus MTCC 2470 assessed as growth inhibition after 24 hr by broth microdilution method.
Assay [3] concerns Pichia kudriavzevii. Put plainly: Antimicrobial activity against Pichia kudriavzevii MTCC 231 assessed as growth inhibition after 24 hr by broth microdilution method.
In assay [4] the test system is Pseudomonas aeruginosa. Put plainly: Antimicrobial activity against Pseudomonas aeruginosa MTCC 424 assessed as growth inhibition after 24 hr by broth microdilution method.
Assay [5] relates to Enterobacter cloacae. Put plainly: Antimicrobial activity against Enterobacter cloacae MTCC 509 assessed as growth inhibition after 24 hr by broth microdilution method.
The test system of assay [6] is Klebsiella pneumoniae. Put plainly: Antimicrobial activity against Klebsiella pneumoniae MTCC 109 assessed as growth inhibition after 24 hr by broth microdilution method.
Assay [7] deals with Aspergillus parasiticus. Description: Antimicrobial activity against Aspergillus parasiticus MTCC 2797 assessed as growth inhibition after 5 days by broth microdilution method.
In assay [8] the test system is Candida albicans. Put plainly: Antimicrobial activity against Candida albicans MTCC 3017 assessed as growth inhibition after 24 hr by broth microdilution method.
The subject of assay [9] is Staphylococcus aureus. Description: Antimicrobial activity against Staphylococcus aureus MTCC 3160 assessed as growth inhibition after 24 hr by broth microdilution method.
Assay [10] relates to Escherichia coli. Put plainly: Antimicrobial activity against Escherichia coli MTCC 43 assessed as growth inhibition after 24 hr by broth microdilution method.
Assay [11] deals with Aspergillus sydowii. Put plainly: Antimicrobial activity against Aspergillus sydowii MTCC 4335 assessed as growth inhibition after 5 days by broth microdilution method.
For assay [12], the system named is Bacillus subtilis. Put plainly: Antimicrobial activity against Bacillus subtilis MTCC 121 assessed as growth inhibition after 24 hr by broth microdilution method.
For assay [13], the system named is Trichophyton rubrum. Put plainly: Antimicrobial activity against Trichophyton rubrum MTCC 296 assessed as growth inhibition after 5 days by broth microdilution method.
In assay [14] the test system is Burkholderia cepacia. Put plainly: Antimicrobial activity against Burkholderia cepacia MTCC 438 assessed as growth inhibition after 24 hr by broth microdilution method.

With `C/C=C/c1cc(OC)c(OC)cc1OC` [TRANS-ASARONE], the MIC was 4.8 mM (≈ 1000 µg/mL) in assay [1] (MTCC 404, 120 h); 1.2 mM (≈ 250 µg/mL) in assay [3] (MTCC 231, 24 h); 9.6 mM (≈ 2000 µg/mL) in [5] (MTCC 509, 24 h); 1.2 mM (≈ 250 µg/mL) in [7] (MTCC 2797, 120 h); 0.6 mM (≈ 125 µg/mL) in assay [8] (MTCC 3017, 24 h); 2.4 mM (≈ 500 µg/mL) in assay [11] (MTCC 4335, 120 h). For the same molecule, the MIC in assay [13] (MTCC 296, 120 h) turned out to be 0.6 mM (≈ 125 µg/mL). Further, the MIC entry in assay [2], in assay [4], in [6], in assay [9], in assay [10] and in [12] was “inactive” each time. Also, in assay [14], the MIC result is “inactive”.
As to `COc1ccc(/C=C/C=O)c(Br)c1OC`, the MIC entry in [1], in [2], in [3], in [4], in assay [5] and in assay [6] was “inactive” in each case. Further, the MIC result in assay [7], in [8], in assay [9], in assay [10], in assay [11] and in assay [12] was “inactive” in each case. Further, the MIC result in assay [13] and in [14] was “inactive” in each case.
Take `Cc1ccc(/C=C/C=O)c([N+](=O)[O-])c1`: the MIC entry in assay [1], in [3], in assay [7], in assay [8], in assay [11] and in assay [13] was “inactive” in each case. Also, the minimum inhibitory concentration (MIC) in assay [2] (MTCC 2470, 24 h) was 2.61 mM (≈ 499 µg/mL); in assay [4] (MTCC 424, 24 h), 2.61 mM (≈ 499 µg/mL); in [5] (MTCC 509, 24 h), 10.5 mM (≈ 2000 µg/mL); in assay [6] (MTCC 109, 24 h), 10.5 mM (≈ 2000 µg/mL); in assay [9] (MTCC 3160, 24 h), 10.5 mM (≈ 2000 µg/mL); in [10] (MTCC 43, 24 h), 2.61 mM (≈ 499 µg/mL). In addition, the MIC in assay [12] (MTCC 121, 24 h) is 2.61 mM (≈ 499 µg/mL); in assay [14] (MTCC 438, 24 h), 2.61 mM (≈ 499 µg/mL).
Take `OC/C=C/c1ccccc1` [CINNAMIC ALCOHOL]: the MIC was 3.72 mM (≈ 499 µg/mL) in assay [1] (MTCC 404, 120 h); 7.45 mM (≈ 1000 µg/mL) in assay [2] (MTCC 2470, 24 h); 3.72 mM (≈ 499 µg/mL) in assay [3] (MTCC 231, 24 h); 3.72 mM (≈ 499 µg/mL) in assay [4] (MTCC 424, 24 h); 7.45 mM (≈ 1000 µg/mL) in [5] (MTCC 509, 24 h); 3.72 mM (≈ 499 µg/mL) in assay [6] (MTCC 109, 24 h). Further, the MIC amounted to 3.72 mM (≈ 499 µg/mL) in assay [7] (MTCC 2797, 120 h); 1.86 mM (≈ 250 µg/mL) in [8] (MTCC 3017, 24 h); 14.9 mM (≈ 2000 µg/mL) in assay [9] (MTCC 3160, 24 h); 7.45 mM (≈ 1000 µg/mL) in [10] (MTCC 43, 24 h); 3.72 mM (≈ 499 µg/mL) in assay [11] (MTCC 4335, 120 h); 7.45 mM (≈ 1000 µg/mL) in assay [12] (MTCC 121, 24 h). Besides, the minimal inhibitory concentration (MIC) in assay [13] (MTCC 296, 120 h) is 1.86 mM (≈ 250 µg/mL); in assay [14] (MTCC 438, 24 h), 1.86 mM (≈ 250 µg/mL).
In the case of `COc1cc(OC)c(OC)cc1C=O` [ASARALDEHYDE], the minimal inhibitory concentration (MIC) in [1] (MTCC 404, 120 h) was determined as 5.1 mM (≈ 1000 µg/mL); in assay [2] (MTCC 2470, 24 h) it was 2.55 mM (≈ 500 µg/mL); in assay [3] (MTCC 231, 24 h), 2.55 mM (≈ 500 µg/mL); in [4] (MTCC 424, 24 h), 2.55 mM (≈ 500 µg/mL); in assay [5] (MTCC 509, 24 h), 10.2 mM (≈ 2000 µg/mL); in assay [6] (MTCC 109, 24 h), 10.2 mM (≈ 2000 µg/mL). For the same molecule, the minimum inhibitory concentration (MIC) in assay [7] (MTCC 2797, 120 h) worked out at 2.55 mM (≈ 500 µg/mL); in assay [8] (MTCC 3017, 24 h), 2.55 mM (≈ 500 µg/mL); in assay [9] (MTCC 3160, 24 h) it was 5.1 mM (≈ 1000 µg/mL); in assay [10] (MTCC 43, 24 h) it was 10.2 mM (≈ 2000 µg/mL); in [11] (MTCC 4335, 120 h), 5.1 mM (≈ 1000 µg/mL); in assay [12] (MTCC 121, 24 h), 5.1 mM (≈ 1000 µg/mL). For the same molecule, the MIC was found to be 0.16 mM (≈ 31.4 µg/mL) in assay [13] (MTCC 296, 120 h) and 5.1 mM (≈ 1000 µg/mL) in assay [14] (MTCC 438, 24 h).
Turning to `COc1ccc(/C=C/C=O)cc1OC` [3,4-DIMETHOXY CINNAMALDEHYDE], the MIC amounted to 5.2 mM (≈ 1000 µg/mL) in assay [1] (MTCC 404, 120 h); 2.6 mM (≈ 500 µg/mL) in assay [2] (MTCC 2470, 24 h); 2.6 mM (≈ 500 µg/mL) in [3] (MTCC 231, 24 h); 2.6 mM (≈ 500 µg/mL) in assay [4] (MTCC 424, 24 h); 10.4 mM (≈ 2000 µg/mL) in [5] (MTCC 509, 24 h); 10.4 mM (≈ 2000 µg/mL) in assay [6] (MTCC 109, 24 h). Besides, the MIC in assay [7] (MTCC 2797, 120 h) came out at 2.6 mM (≈ 500 µg/mL); in assay [8] (MTCC 3017, 24 h), 2.6 mM (≈ 500 µg/mL); in assay [9] (MTCC 3160, 24 h), 5.2 mM (≈ 1000 µg/mL); in assay [10] (MTCC 43, 24 h), 10.4 mM (≈ 2000 µg/mL); in assay [11] (MTCC 4335, 120 h) it was 5.2 mM (≈ 1000 µg/mL); in assay [12] (MTCC 121, 24 h) it was 5.2 mM (≈ 1000 µg/mL). Besides, the minimum inhibitory concentration (MIC) in assay [13] (MTCC 296, 120 h) was 2.6 mM (≈ 500 µg/mL); in [14] (MTCC 438, 24 h) it was 5.2 mM (≈ 1000 µg/mL).
Turning to NYSTATIN, the MIC was 0.03 mM in assay [1]; 0.03 mM in [3]; 0.06 mM in assay [7]; 0.008 mM in assay [8]; 0.004 mM in [11]; 0.008 mM in [13].
As for `COc1ccc(C=O)cc1` [ANISALDEHYDE], the MIC came to 7.34 mM (≈ 999 µg/mL) in assay [1] (MTCC 404, 120 h); 3.67 mM (≈ 500 µg/mL) in assay [3] (MTCC 231, 24 h); 14.7 mM (≈ 2000 µg/mL) in assay [5] (MTCC 509, 24 h); 14.7 mM (≈ 2000 µg/mL) in [6] (MTCC 109, 24 h); 1.83 mM (≈ 249 µg/mL) in assay [7] (MTCC 2797, 120 h); 3.67 mM (≈ 500 µg/mL) in assay [8] (MTCC 3017, 24 h). The minimal inhibitory concentration (MIC) amounted to 1.83 mM (≈ 249 µg/mL) in assay [9] (MTCC 3160, 24 h); 14.7 mM (≈ 2000 µg/mL) in assay [10] (MTCC 43, 24 h); 1.83 mM (≈ 249 µg/mL) in assay [11] (MTCC 4335, 120 h); 14.7 mM (≈ 2000 µg/mL) in [12] (MTCC 121, 24 h); 0.92 mM (≈ 125 µg/mL) in [13] (MTCC 296, 120 h). The MIC entry in assay [2] and in [4] was “inactive” each time.
